Experimental data as given in ChEMBL document CHEMBL3774364, “Synthesis of N-cyano-substituted sulfilimine and sulfoximine derivatives of S0859 and their biological evaluation as sodium bicarbonate co-transport inhibitors” (Medchemcomm, 2015).
Activity calls are given as the source filed them. The rule behind the calls is not given here.

Experiments:
[1] = target: T1, Sodium bicarbonate cotransporter 3 (Homo sapiens) (UniProt Q9Y6M7); assay: Inhibition of NBCn1 in human MCF7 cells assessed as decrease in Na(+) -dependent pHi recovery rate at 30 uM; type: cell-based
T1 sequence (whole entry): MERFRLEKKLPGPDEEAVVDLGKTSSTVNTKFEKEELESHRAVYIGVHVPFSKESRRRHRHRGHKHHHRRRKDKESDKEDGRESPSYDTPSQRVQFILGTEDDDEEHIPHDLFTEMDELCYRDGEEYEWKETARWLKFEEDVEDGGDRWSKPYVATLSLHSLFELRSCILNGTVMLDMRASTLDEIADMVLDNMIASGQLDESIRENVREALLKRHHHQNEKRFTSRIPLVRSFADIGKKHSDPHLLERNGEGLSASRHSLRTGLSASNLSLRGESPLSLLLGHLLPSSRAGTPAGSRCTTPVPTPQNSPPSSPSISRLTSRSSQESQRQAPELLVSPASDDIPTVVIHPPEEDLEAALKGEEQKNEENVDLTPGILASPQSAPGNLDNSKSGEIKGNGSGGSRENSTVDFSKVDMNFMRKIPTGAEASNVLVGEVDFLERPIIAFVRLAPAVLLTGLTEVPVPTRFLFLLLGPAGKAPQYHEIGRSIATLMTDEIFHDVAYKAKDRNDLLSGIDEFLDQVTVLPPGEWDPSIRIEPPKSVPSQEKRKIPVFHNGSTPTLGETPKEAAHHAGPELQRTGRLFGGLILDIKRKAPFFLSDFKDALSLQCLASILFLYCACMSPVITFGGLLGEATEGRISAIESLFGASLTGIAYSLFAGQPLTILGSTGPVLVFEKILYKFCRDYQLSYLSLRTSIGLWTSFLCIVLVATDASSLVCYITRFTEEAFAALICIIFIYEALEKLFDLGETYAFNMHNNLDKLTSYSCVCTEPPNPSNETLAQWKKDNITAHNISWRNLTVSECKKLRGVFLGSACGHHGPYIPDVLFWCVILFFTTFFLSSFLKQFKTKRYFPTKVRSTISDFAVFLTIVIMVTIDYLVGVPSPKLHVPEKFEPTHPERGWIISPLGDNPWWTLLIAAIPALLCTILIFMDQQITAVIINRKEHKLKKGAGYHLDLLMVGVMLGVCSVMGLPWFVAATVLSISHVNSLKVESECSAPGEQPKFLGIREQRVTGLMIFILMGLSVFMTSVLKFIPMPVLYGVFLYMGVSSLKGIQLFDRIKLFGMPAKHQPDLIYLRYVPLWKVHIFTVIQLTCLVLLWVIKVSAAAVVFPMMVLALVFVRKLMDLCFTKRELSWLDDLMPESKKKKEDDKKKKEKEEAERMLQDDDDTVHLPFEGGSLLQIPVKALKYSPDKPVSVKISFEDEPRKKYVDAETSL

[2] = target: T2, Sodium bicarbonate cotransporter 3 (Mus musculus) (UniProt Q8BTY2); assay: Inhibition of NBCn1 in epithelial organoids from mouse ErbB2-overexpressing breast cancer tissue assessed as Na(+) -dependent pHi recovery rate at 30 uM
T2 sequence (whole entry): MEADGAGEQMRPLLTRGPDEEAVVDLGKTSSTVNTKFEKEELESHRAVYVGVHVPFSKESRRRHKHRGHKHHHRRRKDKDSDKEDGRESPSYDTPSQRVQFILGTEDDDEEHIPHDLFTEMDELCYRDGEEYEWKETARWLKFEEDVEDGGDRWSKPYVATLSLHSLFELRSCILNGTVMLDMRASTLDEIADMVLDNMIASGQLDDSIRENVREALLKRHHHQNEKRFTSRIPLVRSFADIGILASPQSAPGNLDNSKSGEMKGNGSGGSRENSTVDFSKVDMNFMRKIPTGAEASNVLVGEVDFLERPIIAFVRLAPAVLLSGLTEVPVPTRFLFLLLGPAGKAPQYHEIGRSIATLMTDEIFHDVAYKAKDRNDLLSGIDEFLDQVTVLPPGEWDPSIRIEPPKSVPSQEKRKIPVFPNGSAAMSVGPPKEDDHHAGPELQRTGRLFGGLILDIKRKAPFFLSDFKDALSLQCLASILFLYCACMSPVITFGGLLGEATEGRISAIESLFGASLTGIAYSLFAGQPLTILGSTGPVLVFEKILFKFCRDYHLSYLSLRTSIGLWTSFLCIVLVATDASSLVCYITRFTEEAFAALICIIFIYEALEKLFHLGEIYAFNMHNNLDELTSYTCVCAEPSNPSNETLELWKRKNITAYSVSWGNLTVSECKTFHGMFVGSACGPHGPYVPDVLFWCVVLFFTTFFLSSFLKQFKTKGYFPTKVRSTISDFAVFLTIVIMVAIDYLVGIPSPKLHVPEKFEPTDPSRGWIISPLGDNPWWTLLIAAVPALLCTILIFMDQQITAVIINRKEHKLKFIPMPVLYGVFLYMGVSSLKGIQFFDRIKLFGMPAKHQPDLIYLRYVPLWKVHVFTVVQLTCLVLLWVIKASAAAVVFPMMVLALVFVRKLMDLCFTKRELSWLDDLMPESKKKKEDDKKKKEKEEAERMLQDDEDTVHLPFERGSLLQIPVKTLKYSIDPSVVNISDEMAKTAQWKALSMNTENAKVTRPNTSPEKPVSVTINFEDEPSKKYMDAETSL

Row | Structure (SMILES) | inhibition [1] | inhibition [2]
1 | Cc1ccc(CN(Cc2ccc(-c3ccccc3S(=O)(=O)NC#N)cc2)C(=O)c2ccccc2Cl)cc1 | 45% | inactive
2 | Cc1ccc(CN(Cc2ccc(-c3ccccc3/S(C)=N/C#N)cc2)C(=O)c2ccccc2Cl)cc1 (stereo unspecified) | inactive | inactive
3 | Cc1ccc(CN(Cc2ccc(-c3ccccc3S(C)(=O)=NC#N)cc2)C(=O)c2ccccc2Cl)cc1 (stereo unspecified) | inactive | inactive
